According to patent US20070059799A1 (priority 1999, published 2007):

Experiments:
DRB1*0301 (DR3) = molecular target: T1, DRB1*0301 (DR3) (Homo sapiens, UniProt P01903+P01911, A100K/A102G/A103R/A169T/F55Y/I96L/K41T/L162R/M171V/P40S/Q125H/Q178H/Q39Y/R42S/S66N/T106N/T262R/W38E/Y61H); experiment: Purified HLA class II peptide binding assay, pH 4.5
T1 construct: endogenous in cells; host or cells: MAT

DRB1*1302 (DR6w19) = molecular target: T2, DRB1*1302 (DR6w19) (Homo sapiens, UniProt P01903+P01911, A100E/A169T/K41T/L162R/M171V/P40S/Q125H/Q178H/Q39Y/Q99D/R42S/S66N/T262R/V115G/W38E/Y61H); experiment: Purified HLA class II peptide binding assay
T2 construct: endogenous in cells
T2 sequence (P01903 26-254, other chains not shown): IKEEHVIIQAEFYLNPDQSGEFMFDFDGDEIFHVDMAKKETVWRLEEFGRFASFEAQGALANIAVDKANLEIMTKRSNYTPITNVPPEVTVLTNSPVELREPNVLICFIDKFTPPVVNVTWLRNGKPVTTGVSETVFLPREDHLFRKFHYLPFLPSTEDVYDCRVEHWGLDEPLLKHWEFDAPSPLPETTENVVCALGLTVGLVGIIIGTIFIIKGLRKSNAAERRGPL

A*0301 = molecular target: T3, A*0301 (Homo sapiens, UniProt P04439); experiment: Purified HLA class I peptide binding assay (HLA-A*03)
T3 construct: endogenous in cells; host or cells: GM3107

A*3301 = A*3301 (Homo sapiens, UniProt P04439, A270S/D185E/E176V/E277Q/E87N/F33T/G231S/H175R/I121M/I218V/I322F/K168Q/K210R/L300P/L318F/M331R/P217A/Q86R/Q94H/R138Q/T323A/T345S/T97I/V358M/Y195H); experiment: biochemical; assay type: binding
A*3101 = A*3101 (Homo sapiens, UniProt P04439, A270S/D185E/E176V/E277Q/F33T/G231S/G80R/H175R/I121M/I218V/I322F/K168Q/L300P/L318F/M331R/P217A/Q94H/R138Q/T323A/T345S/T97I/V358M); experiment: Purified HLA class I peptide binding assay
A*1101 = A*1101 (Homo sapiens, UniProt P04439, A114D/D185E/E176A/F33Y/L180Q/S129P/T187R); experiment: Purified HLA class I peptide binding assay (HLA-A*11)
A*6801 = A*6801 (Homo sapiens, UniProt P04439, A269V/D185E/E176V/E277Q/E87N/F33Y/G231S/I121M/I166T/I218V/L180W/L300P/L318F/N151K/P208A/P217A/Q86R/R169H/T345S); experiment: Purified HLA class I peptide binding assay
A2-supertype alleles = assay type: binding, human; settings: number of supertype alleles bound; 3 or more considered degenerate
A*6802 = A*6802 (Homo sapiens, UniProt P04439, A269V/D140Y/D185E/E176V/E277Q/E87N/F33Y/G231S/I121R/I166T/I218V/L180W/L300P/L318F/N151K/P208A/P217A/Q86R/R138H/R169H/S129P/T345S/V36M); experiment: Purified HLA class I peptide binding assay
A*0202 = A*0202 (Homo sapiens, UniProt P04439, D140Y/D185E/D98H/E176V/E277Q/G131W/G231S/I119L/I121R/I166T/I218V/L180W/L300P/L318F/N151K/N90K/P208A/P217A/Q67R/Q86G/Q94H/R138H/R169H/T345S); experiment: Purified HLA class I peptide binding assay

`CC[C@H](C)[C@H](NC(=O)[C@H](Cc1c[nH]c2ccccc12)NC(=O)[C@@H](NC(=O)CN)C(C)C)C(=O)N[C@@H](CCCNC(=N)N)C(=O)N[C@H](C(=O)N1CCC[C@H]1C(=O)N1CCC[C@H]1C(=O)N[C@@H](C)C(=O)N[C@@H](Cc1ccc(O)cc1)C(=O)N[C@@H](CCCNC(=N)N)C(=O)N1CCC[C@H]1C(=O)N1CCC[C@H]1C(=O)N[C@@H](CC(N)=O)C(=O)N[C@@H](C)C(=O)O)[C@@H](C)O` [27.0280] was tested, and the IC50 (DRB1*0301 (DR3)) was over 20000 nM and the IC50 (DRB1*1302 (DR6w19)) was over 20000 nM.
Compound `CC[C@H](C)[C@H](NC(=O)[C@@H]1CCCN1C(=O)[C@H](CC(C)C)NC(=O)[C@@H](N)CC(C)C)C(=O)N[C@@H](Cc1ccccc1)C(=O)N[C@@H](Cc1ccccc1)C(=O)N[C@@H](CS)C(=O)N[C@@H](CC(C)C)C(=O)N[C@@H](Cc1c[nH]c2ccccc12)C(=O)N[C@H](C(=O)N[C@@H](Cc1ccc(O)cc1)C(=O)O)C(C)C` [Peptide 26.0549] has an IC50 (A*0301) of 478 nM, an IC50 (A*3301) of 644 nM and an IC50 (A*3101) of 2610 nM. For the same compound, the IC50 (A*1101) was 10000 nM and the IC50 (A*6801) was 82 nM.
`CC[C@H](C)[C@H](N)C(=O)N[C@@H](CC(C)C)C(=O)N[C@@H](CO)C(=O)N[C@H](C(=O)N[C@@H](CC(C)C)C(=O)N1CCC[C@H]1C(=O)N[C@@H](CCC(=O)O)C(=O)N[C@H](C(=O)N[C@H](C(=O)N[C@H](C(=O)O)C(C)C)[C@@H](C)O)[C@@H](C)O)[C@@H](C)O` [Peptide 1069.14] showed an Alleles bound (A2-supertype alleles) of 2, an IC50 (A*6802) of 5970 nM and an IC50 (A*0202) of 506 nM.
In the case of `CC(C)C[C@H](NC(=O)[C@H](Cc1c[nH]c2ccccc12)NC(=O)[C@H](CO)NC(=O)[C@H](CC(C)C)NC(=O)[C@@H](N)CC(N)=O)C(=O)N[C@@H](CO)C(=O)N[C@@H](CC(C)C)C(=O)N[C@@H](CC(=O)O)C(=O)N[C@H](C(=O)N[C@@H](CO)C(=O)N[C@@H](C)C(=O)N[C@@H](C)C(=O)N[C@@H](Cc1ccccc1)C(=O)N[C@@H](Cc1ccc(O)cc1)C(=O)N[C@@H](Cc1c[nH]cn1)C(=O)O)C(C)C` [Peptide 1186.18], the IC50 (DRB1*0301 (DR3)) is reported as 231 nM.
